Experimental data reported in patent US11773352B2, “Hydrochlorofluoroolefins and methods of using same” (3M INNOVATIVE PROPERTIES COMPANY, priority 2018, dated 2023).

What was measured:
[1] = Largest Soluble Hydrocarbon (LSH) test; format: physicochemical; conditions: compound:hydrocarbon about 1:1 to 1:2 by weight
Method: Largest Soluble Hydrocarbon (LSH): The LSH of each hydrofluoroolefin compound was determined by mixing the compound with hydrocarbons of varying molecular weight (CnH2n+2, where n=9 to 24) in a hydrofluoroolefin:hydrocarbon ratio of about 1:1 to 1:2 by weight at room temperature (25° C.) and at 50° C. […] A larger value of n is interpreted herein to indicate a greater ability of the hydrofluoroolefin to clean hydrocarbons.
The results presented in Table 2 indicate that the hydrofluoroolefins of the present invention are highly suitable fluids for cleaning applications.

[2] = Atmospheric lifetime from rate of reaction with hydroxyl radicals; format: physicochemical; conditions: gas phase, relative to reference compounds such as chloromethane and ethane, FTIR
Method: Atmospheric lifetime: The atmospheric lifetime of Example 1 was determined from the rate of reaction with hydroxyl radicals. The pseudo-first order rate for the reaction of the gaseous hydrobromofluoroolefin with hydroxyl radical was measured in a series of experiments relative to reference compounds such as chloromethane and ethane. The measurements were performed in a 5.7 L, heated FTIR gas cell equipped with a polished semiconductor-grade quartz window. An Oriel Instruments UV Lamp, Model 66921 equipped with a 480 W mercury-xenon bulb was used to generate hydroxyl radicals by photolyzing ozone in the presence of water vapor. The concentrations of the hydrobromofluoroolefin and the reference compound were measured as a function of reaction time using an I-Series FTIR from Midac Corporation, Westfield, Mass., US. The atmospheric lifetime was calculated from the reaction rates for the hydrobromofluoroolefin relative to the reference compounds and the reported lifetime of the reference compounds as shown below:
[formula] where τx is the atmospheric lifetime of hydrobromofluoroolefin, τr is the atmospheric lifetime of the reference compound, and kx and kr are the rate constants for the reaction of hydroxyl radical with hydrobromofluoroolefin and the reference compound, respectively. Sample Preparation

[3] = 25° C., longest hydrocarbon compatible without haze
[4] = 50° C., largest hydrocarbon used C-23

COC(=C(Cl)C(F)(F)F)C(F)(F)F [Example 1, 2-Chloro-1,1,1,4,4,4-hexafluoro-3-methoxybut-2-ene]
LSH (n in CnH2n+2) [1, 3]: 19
LSH (n in CnH2n+2) [1, 4]: >23
atmospheric lifetime [2]: 0.04 years

COC1=C(Cl)C(F)(F)C(F)(F)C1(F)F [Example 4, 1-Chloro-3,3,4,4,5,5-hexafluoro-2-methoxycyclopent-1-ene]
LSH (n in CnH2n+2) [1, 3]: 19
LSH (n in CnH2n+2) [1, 4]: >23
